According to US20050118381A1, “Diimonium salt mixtures, aminium salts mixtures and use thereof” (priority 2002, published 2005):
Values belong to the compound of their own block, whether it stands above or below them.

Experiments:
Type in all cases: physicochemical
[1] = Solubility test of aminium salt compound
Description: Solubility of Compounds No. 1b, No. 3b, No. 4b, No. 6b, No. 7b, No. 12b, No. 13b, No. 14b and No. 15b obtained in the above Examples in diacetone alcohol (DAA), methyl ethyl ketone (MEK), tetrahydrofuran (THF) and methylcellosolve was measured. Measurement of solubility was conducted in the same manner except that hexafluoroantimonate of tetrakis{p-di(3-cyanopropyl)aminophenyl}phenyleneaminium (Comparative Sample 2) and hexafluorophosphate thereof (Comparative Sample 3) were used instead of the above compounds.

[2] = Solubility test of diimonium salt compound
Description: Solubility of compounds No. 1a, No. 3a, No. 6a, No. 2a, No. 7a, No. 13a and No. 12a obtained in the above Examples in diacetone alcohol (DAA), methyl ethyl ketone (MEK) and cyclohexanone was measured. Measurement of solubility was conducted in the same manner except that hexafluoroantimonate of tetrakis{p-di(3-cyanopropyl)aminophenyl}phenylenediimonium (Comparative Sample 1) was used instead of the above compounds.

[3] = Heat resistance stability test of near-infrared absorption filter coat film
Description: (§1) 1.2 parts of compound No. 1a (Sample 1X), No. 6a (Sample 2X) and No. 15a (Sample 3X) was each dissolved in 18.8 parts of MEK. To the solution was added 80 parts of a resin solution obtained by dissolving 25 parts of an acrylic resin (Dianal BR-80, available from Mitsubishi Rayon Co., Ltd.) in 75 parts of MEK to prepare a coating solution. The coating solution was applied to a polyester film in a thickness of 2 to 4 μm and dried at 80° C. to obtain the near-infrared absorption filter of the present invention.
(§2) The obtained coat film was subjected to a heat resistance stability test in a hot air dryer at 80° C. for a predetermined time and a moisture heat resistance stability test in a temperature and humidity controlled apparatus under conditions of 60° C. and 95% RH for a predetermined time. In addition, Samples 1X and 2X were subjected to a lightfastness test using a weatherometer (Ci4000, made by Atlas Electric Devices Co.) under conditions of light source output: 0.36 W/m^2, bath temperature: 24° C., black panel temperature: 40° C. and humidity: 30% RH for 50 hours. After the tests, the color of the film was measured by an ultraviolet/visible light spectrophotometer (UV-2100, made by Shimadzu Corporation) to calculate L*, a*, b* values and stability was evaluated from the variation of the b* value. The results of heat resistance test are shown in Table 9, the results of the moisture heat resistance test are shown in Table 10 and the results of the lightfastness test are shown in Table 11.
(§3) Coat films were prepared and evaluated in the same manner except that hexafluoroantimonate of tetrakis{p-di(n-butyl)aminophenyl}phenylenediimonium (Comparative Sample 1X) and hexafluoroantimonate of tetrakis{p-di(3-cyanopropyl)aminophenyl}phenylenediimonium (Comparative Sample 2X) were used instead of the above compounds.

[4] = Moisture heat resistance stability test of near-infrared absorption filter coat film; conditions: acrylic resin coat film
Description: as §1, §2, §3

[5] = Lightfastness test of near-infrared absorption filter coat film; conditions: acrylic resin coat film
Description: as §1
The obtained coat film was subjected to a heat resistance stability test in a hot air dryer at 80° C. for a predetermined time and a moisture heat resistance stability test in a temperature and humidity controlled apparatus under conditions of 60° C. and 95% RH for a predetermined time. […] After the tests, the color of the film was measured by an ultraviolet/visible light spectrophotometer (UV-2100, made by Shimadzu Corporation) to calculate L*, a*, b* values and stability was evaluated from the variation of the b* value. […]
as §3

[6] = Lightfastness test of dye film containing diimonium salt compound
Description: (§4) 0.3 part of cyanine dye (OM-57) was dissolved in 15 parts of tetrafluoropropanol and 0.04 part of compound No. 2a was added to the solution to prepare coating. The obtained coating was spin coated on a polycarbonate substrate to prepare a dye film (Sample 1Y). The obtained dye film was subjected to a lightfastness test using a weatherometer (Ci4000, made by Atlas Electric Devices Co.) under conditions of light source output: 0.36 W/m^2, bath temperature: 24° C., black panel temperature: 40° C. and humidity: 30% RH for 50 hours, by applying light from the substrate side. Then the residual ratio of the cyanine dye was measured by a spectrophotometer.
Further, dye films were prepared and evaluated in the same manner except that compounds of No. 3a (Sample 2Y), No. 7a (Sample 3Y) and No. 10a (Sample 4Y), compounds of No. 12a (Sample 5Y) and No. 13a (Sample 6Y) and compound No. 19a (Sample 7Y) were used instead of compound No. 2a, and the results are shown in Table 12.
For comparison, a dye film was prepared and evaluated in the same manner except that hexafluoroantimonate of tetrakis{p-di(n-butyl)aminophenyl}phenylenediimonium (Comparative Sample 1Y) was used instead of compound No. 2a.

[7] = Lightfastness test of dye film containing aminium salt compound
Description: as §4, with “2b” for “2a”, “1Z).” for “1Y).”, “150” for “50”
Further, dye films were prepared and evaluated in the same manner except that compounds of No. 3b (Sample 2Z), No. 4b (Sample 3Z) and No. 7b (Sample 4Z) and compound No. 12b (Sample 5Z) were used instead of compound No. 2b, and the results are shown in Table 13.
For comparison, a dye film was prepared and evaluated in the same manner except that hexafluoroantimonate of tetrakis{p-di(n-butyl)aminophenyl}phenylenediimonium (Comparative Sample 1Z) was used instead of compound No. 2b.

[8] = dye film: 0.3 part OM-57 + 0.04 part compound on polycarbonate, before irradiation

solubility DAA ([1]; in diacetone alcohol (DAA)): 1.2 wt %
solubility MEK ([1]; in methyl ethyl ketone (MEK)): 1.7 wt %
solubility THF ([1]; in tetrahydrofuran (THF)): insoluble
Compound: hexafluoroantimonate of tetrakis{p-di(3-cyanopropyl)aminophenyl}phenyleneaminium [Comparative Sample 2]

solubility cyclohexane ([2]; column head cyclohexane (text: cyclohexanone)): insoluble
solubility DAA ([2]; in diacetone alcohol (DAA)): insoluble
solubility MEK ([2]; in methyl ethyl ketone (MEK)): insoluble
solubility in MEK (film preparation) ([3]; 1.2 parts in 18.8 parts of MEK, impossible to prepare a film): poor
Compound: hexafluoroantimonate of tetrakis{p-di(3-cyanopropyl)aminophenyl}phenylenediimonium [Comparative Sample 1]

b* value initial stage ([3]; acrylic resin coat film on polyester film, before hot air dryer 80° C.): 2.85
b* value after 4 days ([3]; acrylic resin coat film, hot air dryer 80° C., 4 days): 3.65
b* value after 7 days ([3]; acrylic resin coat film, hot air dryer 80° C., 7 days): 3.93
b* value after 14 days ([3]; acrylic resin coat film, hot air dryer 80° C., 14 days): 4.30
b* value after 4 days ([4]; 60° C. and 95% RH, 4 days): 4.23
b* value after 7 days ([4]; 60° C. and 95% RH, 7 days): 4.69
b* value after 14 days ([4]; 60° C. and 95% RH, 14 days): 5.55
b* value initial stage ([4]; before 60° C. and 95% RH): 2.85
b* value initial stage ([5]; before weatherometer): 2.85
b* value after 50 hours ([5]; weatherometer 0.36 W/m^2, 24° C., 30% RH, 50 hours): 6.49
residual ratio of cyanine dye initial stage [6, 8]: 100%
residual ratio of cyanine dye after 50 hours ([6]; dye film: 0.3 part OM-57 + 0.04 part compound, weatherometer 0.36 W/m^2, 50 hours): 69%
residual ratio of cyanine dye initial stage [7, 8]: 100%
residual ratio of cyanine dye after 150 hours ([7]; dye film: 0.3 part OM-57 + 0.04 part compound, weatherometer 0.36 W/m^2, 150 hours): 29%
Compound: CCCCN(CCCC)c1ccc([N+](=C2C=CC(=[N+](c3ccc(N(CCCC)CCCC)cc3)c3ccc(N(CCCC)CCCC)cc3)C=C2)c2ccc(N(CCCC)CCCC)cc2)cc1.[F][Sb-]([F])([F])([F])([F])[F].[F][Sb-]([F])([F])([F])([F])[F] [Comparative Sample 1X, hexafluoroantimonate of tetrakis{p-di(n-butyl)aminophenyl}phenylenediimonium]
